Active and inactive are the calls of the source. The calls are words filed in the database; no cut-off is given here.
How the values were obtained:
[1] = Antioxidant activity assessed as inhibition of AAPH-induced crocin oxidation in hydrophilic medium at 5 to 500 uM by crocin bleaching assay; assay type: physicochemical
[2] = Antioxidant activity assessed as inhibition of AAPH-induced crocin oxidation at 5 to 500 uM in lipophilic medium containing linoleic acid by crocin bleaching assay; assay type: physicochemical
[3] = Induction of thermotropic behavior changes in dimyristoylphosphatidylcholine multilamellar vesicles assessed as reduction in cooperativity among phospholipid molecules by measuring peak width at half height at 0.015 to 0.15 molar fraction by differential scanning calorimetry
[4] = Drug absorption in dimyristoylphosphatidylcholine multilamellar vesicles at 0.045 molar fraction using lipophilic medium as carrier by differential scanning calorimetry; assay type: physicochemical; details: octanol/water
[5] = Pro-oxidant activity in hydrophilic medium by crocin bleaching assay; assay type: functional
[6] = Induction of thermotropic behavior changes in dimyristoylphosphatidylcholine multilamellar vesicles assessed as reduction in enthalpy of phase transition at 0.06 molar fraction by differential scanning calorimetry; design: scale not given: the % may be the effect or the level left
[7] = Drug absorption in dimyristoylphosphatidylcholine multilamellar vesicles at 0.09 molar fraction by differential scanning calorimetry; assay type: physicochemical
Lipid bilayer [8] = assay: Induction of thermotropic behavior changes in dimyristoylphosphatidylcholine multilamellar vesicles assessed as reduction in enthalpy of phase transition at 0.12 molar fraction by differential scanning calorimetry; design: scale not given: the % may be the effect or the level left
[9] = Induction of thermotropic behavior changes in dimyristoylphosphatidylcholine multilamellar vesicles assessed as reduction in transition temperature at 0.015 to 0.15 molar fraction by differential scanning calorimetry
[10] = Induction of thermotropic behavior changes in dimyristoylphosphatidylcholine multilamellar vesicles assessed as reduction in enthalpy of phase transition at 0.03 molar fraction by differential scanning calorimetry; design: scale not given: the % may be the effect or the level left
[11] = Induction of thermotropic behavior changes in dimyristoylphosphatidylcholine multilamellar vesicles assessed as reduction in enthalpy of phase transition at 0.09 molar fraction by differential scanning calorimetry; design: scale not given: the % may be the effect or the level left
[12] = Induction of thermotropic behavior changes in dimyristoylphosphatidylcholine multilamellar vesicles assessed as reduction in enthalpy of phase transition at 0.015 to 0.15 molar fraction by differential scanning calorimetry
Lipid bilayer [13] = assay: Binding affinity to external surface of dimyristoylphosphatidylcholine multilamellar vesicles at 0.09 molar fraction by differential scanning calorimetry
[14] = Induction of thermotropic behavior changes in dimyristoylphosphatidylcholine multilamellar vesicles assessed as reduction in enthalpy of phase transition at 0.15 molar fraction by differential scanning calorimetry; design: scale not given: the % may be the effect or the level left
[15] = Pro-oxidant activity in lipophilic medium containing linoleic acid by crocin bleaching assay; assay type: functional
[16] = Induction of thermotropic behavior changes in dimyristoylphosphatidylcholine multilamellar vesicles assessed as changes in pre-transition peak at 0.015 to 0.15 molar fraction by differential scanning calorimetry
[17] = Induction of thermotropic behavior changes in dimyristoylphosphatidylcholine multilamellar vesicles assessed as reduction in enthalpy of phase transition at 0.015 molar fraction by differential scanning calorimetry; design: scale not given: the % may be the effect or the level left
[18] = Induction of thermotropic behavior changes in dimyristoylphosphatidylcholine multilamellar vesicles assessed as changes in main transition peak at 0.015 to 0.15 molar fraction by differential scanning calorimetry
[19] = Induction of thermotropic behavior changes in dimyristoylphosphatidylcholine multilamellar vesicles assessed as reduction in enthalpy of phase transition at 0.045 molar fraction by differential scanning calorimetry; design: scale not given: the % may be the effect or the level left

For `Cc1c(C)c2c(c(C)c1O)CCC(C)(C(=O)O)O2` (stereo unspecified) [TROLOX], the Activity [1] was “Active” and the Activity [2] was “Active”.
In the case of `CCCCCC/C(C=O)=C\c1ccccc1`, the Activity [1] is reported as “Active”, the Activity [3] is reported as “Dose-dependent effect” and the Drug uptake [4] is reported as “Active”. The Activity [2] was “Active”, the Activity [5] was “inactive” and the Activity [6] was 91.7%. The Drug uptake [7] was “Active”, the Activity (Lipid bilayer [8]) was 71.2% and the Activity [9] was “Dose-dependent effect”. The Activity [10] was 96%, the Activity [11] was 79.5% and the Activity [12] was “Dose-dependent effect”. The Activity (Lipid bilayer [13]) was “Active”, the Activity [14] was 74.1% and the Activity [15] was “inactive”. For the same molecule, the Activity [16] was “Active”, the Activity [17] was 95% and the Activity [18] was “Active”. The Activity [19] was 98.3%.
